# Reference: patent US20170362283A1, “NISIN-BASED COMPOUNDS AND USE THEREOF IN THE TREATMENT OF BACTERIAL INFECTIONS” (UNIVERSITEIT UTRECHT HOLDING B.V., priority 2015, published 2017)
# Where two headings read alike, the source gives them in different places.
# What was measured:
# [1] = tested on: thirty VRE strains
# [2] = tested on: B. subtilis; details: duplicate experiments
# Procedure: (§1) Determining the MIC value is a standard technique well known to the skilled person, in particular the MIC value can be measured using method M07-A9 (CLSI standard, January 2012, Vol. 32, No. 2, “Methods for Dilution Antimicrobial Susceptibility Tests for Bacteria That Grow Aerobically”).
# (§2) Different microorganisms (from glycerol stock) were plated out on blood agar and incubated at 37° C. for 24 hours. A colony was selected and 2×5 mL of TSB was inoculated. The samples and a sterile control were cultured for 16-20 hours at 37° C. Comparative compound B is nisin acting as a control. […] Comparative compounds A, D and E are also control compounds not part of the present invention.
# (§3) The overnight cultures were diluted to 0.5×10^6 CFU in TSB. 50 μL of the bacterial solution was added to each well and the plates were sealed with an adhesive membrane and incubated at 37° C. for 16 hours. The next day, the plates were visually inspected for bacterial growth.
# [3] = tested on: E. coli; details: duplicate experiments
# Procedure: as §1, §2, §3
# [4] = tested on: S. aureus; details: duplicate experiments
# Procedure: as §1, §2, §3
# [5] = tested on: M. luteus; format: cell-based; details: duplicate experiments
# Procedure: as §1
# (§4) Different microorganisms (from glycerol stock) were plated out on blood agar and incubated at 37° C. for 24 hours. A colony was selected and 2×5 mL of TSB was inoculated. The samples and a sterile control were cultured for 16-20 hours at 37° C. Comparative compound B is nisin acting as a control. Comparative compound C is vancomycin, also acting as a control. Comparative compounds A, D and E are also control compounds not part of the present invention.
# as §3
# [6] = tested on: VRE 155; format: cell-based; details: duplicate experiments
# Procedure: as §1, §4, §3
# [7] = tested on: erythrocytes; test: Hemolysis assay; details: human erythrocytes, 1 h, at 32 μg/mL
# Procedure: Human whole blood was centrifuged at 600×g for 15 min and levels of plasma and hematocrit were marked on the tube. Plasma was removed and the erythrocytes washed 3× with PBS (centrifuging at 600×g for 15 mins). After discarding the supernatant, the packed cells were stored on ice. 100 μL of the peptides (128 μg/mL in PBS, 2% DMSO) as well as a control solution comprised of 2% DMSO in PBS were added to the top row of a polypropylene, round-bottom 96 well plate and 50 μL of PBS to the rest of the wells. The peptides and the DMSO control solutions were then diluted serially down the rows. 200 μL of the packed cells were added to PBS (10 mL) and 50 μL of this suspension was added to each well. A column with DI water containing 0.1% Triton X-100 was used as the 100% lysis control, and the column containing the serially-diluted PBS (1.0% DMSO) control served as the 0% lysis reference. The cells were incubated at 37° C. for 1 h. After incubation the plates were centrifuged (800×g, 5 min) and 25 μL of the supernatant was added to 100 μL DI water in a flat-bottom plate (polystyrene). The absorption at 414 nm was recorded to measure the amount of free hemoglobin.
# [8] = tested on: MRSA WKZ2; format: cell-based, Staphylococcus aureus; details: duplicate experiments
# Procedure: as §1, §4, §3
# [9] = tested on: MRSA USA300; format: cell-based, Staphylococcus aureus; details: duplicate experiments
# Procedure: as §1, §4, §3
substance,measurement,setting,value
vancomycin,MIC,"[1]; VRE strain E0013, GBR, vanA",32 µg/mL
same,MIC,"[1]; VRE strain E0072, NLD, vanA",8 µg/mL
same,MIC,"[1]; VRE strain E0300, USA, vanA",>128 µg/mL
same,MIC,"[1]; VRE strain E0321, FRA, vanA",>128 µg/mL
same,MIC,"[1]; VRE strain E0333, ISR, vanA",>128 µg/mL
same,MIC,"[1]; VRE strain E0338, ITA, vanA",>128 µg/mL
same,MIC,"[1]; VRE strain E0341, GBR, vanA",128 µg/mL
same,MIC,"[1]; VRE strain E0506, AUS, vanA",>128 µg/mL
same,MIC,"[1]; VRE strain E0745, NLD, vanA",64 µg/mL
same,MIC,"[1]; VRE strain E1130, USA, vanA",>128 µg/mL
same,MIC,"[1]; VRE strain E1441, GRC, vanA",128 µg/mL
same,MIC,"[1]; VRE strain E1679, BRA, vanA",>128 µg/mL
same,MIC,"[1]; VRE strain E1763, BEL, vanA",>128 µg/mL
same,MIC,"[1]; VRE strain E2297, USA, vanA",128 µg/mL
same,MIC,"[1]; VRE strain E2359, SGP, vanB",<1-1 μg/mL
same,MIC,"[1]; VRE strain E2365, HUN, vanB",<1 µg/mL
same,MIC,"[1]; VRE strain E2373, SRB, vanA",>128 µg/mL
same,MIC,"[1]; VRE strain E6016, LVA, vanA",128 µg/mL
same,MIC,"[1]; VRE strain E7312, NLD, vanA",64 µg/mL
same,MIC,"[1]; VRE strain E7314, NLD, vanB",>128 µg/mL
same,MIC,"[1]; VRE strain E7319, NLD, vanA",>128 µg/mL
same,MIC,"[1]; VRE strain E7329, NLD, vanA",<1 µg/mL
same,MIC,"[1]; VRE strain E7401, NLD, vanB",16 µg/mL
same,MIC,"[1]; VRE strain E7403, NLD, vanB",<1 µg/mL
same,MIC,"[1]; VRE strain E7413, NLD, vanA",>128 µg/mL
same,MIC,"[1]; VRE strain E7424, NLD, vanB",>128 µg/mL
same,MIC,"[1]; VRE strain E7464, NLD, vanB",2 µg/mL
same,MIC,"[1]; VRE strain E8218, NLD, vanB",8 µg/mL
same,MIC,"[1]; VRE strain E8235, NLD, vanB",8 µg/mL
same,MIC,"[1]; VRE strain E8237, NLD, vanA",128 µg/mL
same,MIC50,[1]; thirty VRE strains,MIC50 = 128 μg/mL
same,MIC90,[1]; thirty VRE strains,MIC90 = >128 μg/mL
same,MIC values B. subtilis,[2],0.03 to 0.06 µg/mL
same,MIC values E. coli,[3],>10 µg/mL
same,MIC values S. aureus,[4],0.25 to 0.31 µg/mL
same,MIC values M. luteus,[5],0.03 µg/mL
same,MIC values VRE 155,[6],>10 µg/mL
same,hemolysis,[7],negligible hemolysis
same,MIC values MRSA WKZ2,[8],0.625 µg/mL
same,MIC values MRSA USA300,[9],0.625 µg/mL
